Reference: patent publication US20230233569A1 (Revolution Medicines, Inc., priority 2020, published 2023)

Columns and labels:
[1] = system: 4EBP1 (Thr37/46) phosphorylation (mTORC1) in MDA-MB-468 cells; experiment: Cell based AlphaLISA assay, mTOR kinase cellular assay: inhibition of p-4E-BP1 (T37/46) in MDA-MB-468 cells; details: Homo sapiens, read-out: pIC50 for Inhibition of mTORC1 and mTORC2 Substarte Phosphorylation p-4E-BP1-(T37/46) (converted)
Method: (§1) Cell Based AlphaLISA Assays for Determining IC50 For Inhibition of P-Akt (S473), P-4E-BP1 (T37/46), and P-P70S6K (T389) in MDA-MB-468 Cells
(§2) mTOR Kinase Cellular Assay
(§3) To measure functional activity of mTORC1 and mTORC2 in cells the phosphorylation of 4EBP1 (Thr37/46) and P70S6K (Thr389), and AKT1/2/3 (Ser473) was monitored using AlphaLisa SureFire Ultra Kits (Perkin Elmer). MDA-MB-468 cells (ATCC® HTB-132) were cultured in 96-well tissue culture plates and treated with compounds in the disclosure at concentrations varying from 0.017-1,000 nM for two to four hours at 37° C. Incubations were terminated by removal of the assay buffer and addition of lysis buffer provided with the assay kit. Samples were processed according to the manufacturer's instructions. The Alpha signal from the respective phosphoproteins was measured in duplicate using a microplate reader (Envision, Perkin-Elmer or Spectramax M5, Molecular Devices). Inhibitor concentration response curves were analyzed using normalized IC50 regression curve fitting with control based normalization.

[2] = system: AKT1/2/3 (Ser473) phosphorylation (mTORC2) in MDA-MB-468 cells; experiment: Cell based AlphaLISA assay, mTOR kinase cellular assay: inhibition of p-Akt (S473) in MDA-MB-468 cells; details: Homo sapiens, read-out: pIC50 for Inhibition of mTORC1 and mTORC2 Substarte Phosphorylation p-AKT1/2/3-(S473) (converted)
Method: as §1, §2, §3

Row | SMILES | IC50 [1] | IC50 [2]
1 | CO[C@H]1C[C@@H]2CC[C@@H](C)[C@@](O)(O2)C(=O)C(=O)N2CCCC[C@H]2C(=O)O[C@H]([C@H](C)C[C@@H]2CC[C@@H](OC(=O)NCCOCCOCCOCCOCCOCCOCCOCCOCCC(=O)NCc3ccc(Cn4nc(-c5ccc6oc(N)nc6c5)c5c(N)ncnc54)cc3)[C@H](OC)C2)C[C@H](N=[N+]=[N-])[C@H](C)/C=C(\C)[C@@H](O)[C@@H](OC)C(=O)[C@H](C)C[C@H](C)/C=C/C=C/C=C/1C [Example 82] | ≤ 3.16 nM | 
2 | CO[C@H]1C[C@@H]2CC[C@@H](C)[C@@](O)(O2)C(=O)C(=O)N2CCCC[C@H]2C(=O)O[C@H]([C@H](C)C[C@@H]2CC[C@@H](OC(=O)NCc3cnc(N4CCN(CCOCCN5CCN(c6ncc(C(=O)N7CCc8cc(Cn9nc(-c%10ccc%11oc(N)nc%11c%10)c%10c(N)ncnc%109)ccc8C7)cn6)CC5)CC4)nc3)[C@H](OC)C2)C[C@@H](OC)[C@H](C)/C=C(\C)[C@@H](O)[C@@H](OC)C(=O)[C@H](C)C[C@H](C)/C=C/C=C/C=C/1C [Example 125] | ≤ 3.16 nM | 
3 | CO[C@H]1C[C@@H]2CC[C@@H](C)[C@@](O)(O2)C(=O)C(=O)N2CCCC[C@H]2C(=O)O[C@H]([C@H](C)C[C@@H]2CC[C@@H](OC(=O)NCCOCCOCCN3CCN(CCOCCOCCOCCOCCC(=O)N4CCc5cc(Cn6nc(-c7ccc8oc(N)nc8c7)c7c(N)ncnc76)ccc5C4)CC3)[C@H](OC)C2)C[C@@H](O)[C@H](C)/C=C(\C)[C@@H](O)[C@@H](OC)C(=O)[C@H](C)C[C@H](C)/C=C/C=C/C=C/1C [Example 135] |  | > 1000 nM
4 | CO[C@H]1C[C@@H]2CC[C@@H](C)[C@@](O)(O2)C(=O)C(=O)N2CCCC[C@H]2C(=O)O[C@H]([C@H](C)C[C@@H]2CC[C@@H](OC(=O)NCc3cnc(N4CCN(C(=O)CCOCCN5CCN(c6ncc(C(=O)NCCS(=O)(=O)c7ccc(C(=O)N8CCOc9ccc(-c%10ccc(N)nc%10)cc9C8)c(C)c7F)cn6)CC5)CC4)nc3)[C@H](OC)C2)C[C@@H](OC)[C@H](C)/C=C(\C)[C@@H](O)[C@@H](OC)C(=O)[C@H](C)C[C@H](C)/C=C/C=C/C=C/1C [Example 120] |  | 3.16 to 31.6 nM
5 | CO[C@H]1C[C@@H]2CC[C@@H](C)[C@@](O)(O2)C(=O)C(=O)N2CCCC[C@H]2C(=O)O[C@H]([C@H](C)C[C@@H]2CC[C@@H](OC(=O)NCc3cnc(N4CCN(C(=O)CCOCCN5CCN(c6ncc(C(=O)N7CCc8cc(Cn9nc(-c%10ccc%11oc(N)nc%11c%10)c%10c(N)ncnc%109)ccc8C7)cn6)CC5)[C@@H](C(=O)O)C4)nc3)[C@H](OC)C2)C[C@@H](OC)[C@H](C)/C=C(\C)[C@@H](O)[C@@H](OC)C(=O)[C@H](C)C[C@H](C)/C=C/C=C/C=C/1C [Example 131] |  | 3.16 to 31.6 nM
6 | CO[C@H]1C[C@@H]2CC[C@@H](C)[C@@](O)(O2)C(=O)C(=O)N2CCCC[C@H]2C(=O)O[C@H]([C@H](C)C[C@@H]2CC[C@@H](OC(=O)NCc3cnc(N4CCN(c5ncc(C(=O)NCCOCCOCCOCCOCCC(=O)N6CCc7cc(Cn8nc(-c9cnc%10[nH]ccc%10c9)c9c(N)ncnc98)ccc7C6)cn5)CC4CO)nc3)[C@H](OC)C2)CC(=O)[C@H](C)/C=C(\C)[C@@H](O)[C@@H](OC)C(=O)[C@H](C)C[C@H](C)/C=C/C=C/C=C/1C (some centres unmarked) [Example 41] |  | > 1000 nM
7 | CO[C@H]1C[C@@H]2CC[C@@H](C)[C@@](O)(O2)C(=O)C(=O)N2CCCC[C@H]2C(=O)O[C@H]([C@H](C)C[C@@H]2CC[C@@H](O)[C@H](OC)C2)CC(=O)[C@H](C)/C=C(\C)[C@@H](OC(=O)NCc2cnc(N3CCN(C(=O)CCOCCN4CCN(c5ncc(C(=O)N6CCc7cc(Cn8nc(-c9ccc%10oc(N)nc%10c9)c9c(N)ncnc98)ccc7C6)cn5)CC4)CC3)nc2)[C@@H](OC)C(=O)[C@H](C)C[C@H](C)/C=C/C=C/C=C/1C [Example 133] | ≤ 3.16 nM | 
8 | CO[C@H]1C[C@@H]2CC[C@@H](C)[C@@](O)(O2)C(=O)C(=O)N2CCCC[C@H]2C(=O)O[C@H]([C@H](C)C[C@@H]2CC[C@@H](OC(=O)NCCOCCOCCN3C[C@@H]4C[C@H]3CN4CCOCCOCCOCCOCCC(=O)N3CCc4cc(Cn5nc(-c6ccc7oc(N)nc7c6)c6c(N)ncnc65)ccc4C3)[C@H](OC)C2)C[C@@H](O)[C@H](C)/C=C(\C)[C@@H](O)[C@@H](OC)C(=O)[C@H](C)C[C@H](C)/C=C/C=C/C=C/1C [Example 152] |  | 31.6 to 1000 nM
9 | CO[C@H]1C[C@@H]2CC[C@@H](C)[C@@](O)(O2)C(=O)C(=O)N2CCCC[C@H]2C(=O)O[C@H]([C@H](C)C[C@@H]2CC[C@@H](OC(=S)NCc3cnc(N4CCN(C(=O)CCOCCN5CCN(c6ncc(C(=O)N7CCc8cc(Cn9nc(-c%10ccc%11oc(N)nc%11c%10)c%10c(N)ncnc%109)ccc8C7)cn6)CC5)CC4)nc3)[C@H](OC)C2)C[C@@H](OC)[C@H](C)/C=C(\C)[C@@H](O)[C@@H](OC)C(=O)[C@H](C)C[C@H](C)/C=C/C=C/C=C/1C [Example 118] |  | 3.16 to 31.6 nM
10 | CO[C@H]1C[C@@H]2CC[C@@H](C)[C@@](O)(O2)C(=O)C(=O)N2CCCC[C@H]2C(=O)O[C@H]([C@H](C)C[C@@H]2CC[C@@H](OC(=O)N3CCc4nc(N5CCN(CCOCCN6CCN(c7ncc(C(=O)N8CCc9cc(Cn%10nc(-c%11ccc%12oc(N)nc%12c%11)c%11c(N)ncnc%11%10)ccc9C8)cn7)CC6)CC5)ncc4C3)[C@H](OC)C2)C[C@@H](OC)[C@H](C)/C=C(\C)[C@@H](O)[C@@H](OC)C(=O)[C@H](C)C[C@H](C)/C=C/C=C/C=C/1C [Example 126] | 3.16 to 31.6 nM | 
11 | CO[C@H]1C[C@@H]2CC[C@@H](C)[C@@](O)(O2)C(=O)C(=O)N2CCCC[C@H]2C(=O)O[C@H]([C@H](C)C[C@@H]2CC[C@@H](OC(=O)N3CCc4nc(N5CCN(C(=O)CCOCCN6CCN(c7ncc(C(=O)N8CCc9cc(Cn%10nc(-c%11ccc%12oc(N)nc%12c%11)c%11c(N)ncnc%11%10)ccc9C8)cn7)CC6)CC5)ncc4C3)[C@H](OC)C2)C[C@@H](OC)[C@H](C)/C=C(\C)[C@@H](O)[C@@H](OC)C(=O)[C@H](C)C[C@H](C)/C=C/C=C/C=C/1C [Example 114] |  | > 1000 nM
12 | CO[C@H]1C[C@@H]2CC[C@@H](C)[C@@](O)(O2)C(=O)C(=O)N2CCCC[C@H]2C(=O)O[C@H]([C@H](C)C[C@@H]2CC[C@@H](OC(=O)NCc3cnc(N4CCN(C(=O)CCOCCN5CCN(C(=O)CCC(=O)N6CCc7cc(Cn8nc(-c9ccc%10oc(N)nc%10c9)c9c(N)ncnc98)ccc7C6)CC5)CC4)nc3)[C@H](OC)C2)C[C@@H](O)[C@H](C)/C=C(\C)[C@@H](O)[C@@H](OC)C(=O)[C@H](C)C[C@H](C)/C=C/C=C/C=C/1C [Example 129] |  | > 1000 nM
13 | CO[C@H]1C[C@@H]2CC[C@@H](C)[C@@](O)(O2)C(=O)C(=O)N2CCCC[C@H]2C(=O)O[C@H]([C@H](C)C[C@@H]2CC[C@@H](OC(=S)NCc3cnc(N4CCN(C(=O)CCOCCN5CCN(c6ncc(C(=O)N7CCc8cc(Cn9nc(-c%10ccc%11oc(N)nc%11c%10)c%10c(N)ncnc%109)ccc8C7)cn6)CC5)CC4)nc3)[C@H](OC)C2)CC(=O)[C@H](C)/C=C(\C)[C@@H](O)[C@@H](OC)C(=O)[C@H](C)C[C@H](C)/C=C/C=C/C=C/1C [Example 116] |  | > 1000 nM
14 | CO[C@H]1C[C@@H]2CC[C@@H](C)[C@@](O)(O2)C(=O)C(=O)N2CCCC[C@H]2C(=O)O[C@H]([C@H](C)C[C@@H]2CC[C@@H](OC(=O)NCc3cnc(N4CCN(C(=O)CCOCCN5CCN(c6ncc(C(=O)NCCS(=O)(=O)c7ccc(C(=O)N8CCOc9ccc(-c%10ccc(N)nc%10)cc9C8)c(C)c7)cn6)CC5)CC4)nc3)[C@H](OC)C2)CC(=O)[C@H](C)/C=C(\C)[C@@H](O)[C@@H](OC)C(=O)[C@H](C)C[C@H](C)/C=C/C=C/C=C/1C [Example 121] |  | > 1000 nM
